Test results taken from patent US10738028B2, “Spiro three-membered ring, spiro five-membered ring peptide deformylase inhibitor and use thereof in antibacteria and anti-tumor” (priority 2016, dated 2020).

Assays:
Assay type in all cases: cell-based
[1] = system: Enterococcus faecalis (EFA); experiment: MIC, two-fold agar dilution (CLSI), clinical isolates
Summary of the method: (§1)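 MIC values come from two-fold agar dilution run per CLSI antimicrobial susceptibility testing procedure.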

[2] = system: Enterococcus faecium (EFM); experiment: as above
Summary of the method: as §1

[3] = system: Escherichia coli (including ESBLs, non-ESBLs); experiment: as above
Summary of the method: as §1

[4] = system: Moraxella catarrhalis (BCA); experiment: as above
Summary of the method: as §1

[5] = system: Streptococcus pneoumoniae (SPN); experiment: as above
Summary of the method: as §1

[6] = system: methicillin-resistant Staphylococcus aureus (MRSA); experiment: as above
Summary of the method: as §1

[7] = system: methicillin-resistant Staphylococcus epidermidis (MRSE); experiment: as above
Summary of the method: as §1

[8] = system: methicillin-sensitive Staphylococcus aureus (MSSA); experiment: as above
Summary of the method: as §1

[9] = system: methicillin-sensitive Staphylococcus epidermidis (MSSE); experiment: as above
Summary of the method: as §1

[10] = system: HCT-116 colorectal cancer cell line; experiment: CCK-8 proliferation inhibition; details: Homo sapiens, HCT-116, 72 h, concentration of 30 μM; 72 hours; CCK-8; read-out: HCT116 inhibition rate/%
Summary of the method: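 2000 cells/well, McCoy's 5A + 10% newborn bovine serum; overnight attach, 37° C./5% CO2. Cpd from DMSO stock diluted in medium, 72 h. Readout: CCK-8 (1:10). Ctrl 1‰ DMSO.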

CCCC[C@H](CC(=O)NO)C(=O)N1CC2(CC2)C[C@H]1c1nc2ccccc2n1CCN(C)C [Example 60, (R)-3-((S)-6-(1-(2-(dimethylamino)ethyl)-1H-benzimidazol-2-yl)-5-azaspiro[2.4]heptane-5-carbonyl)-N-hydroxyheptanamide]
Anti-bacterial activity (MIC), strain EFA 15-1 ([1]; clinical isolate EFA 15-1): > 32 µg/mL
Anti-bacterial activity (MIC), strain EFA 15-2 ([1]; clinical isolate EFA 15-2): > 32 µg/mL
Anti-bacterial activity (MIC), strain EFA 15-3 ([1]; clinical isolate EFA 15-3): > 32 µg/mL
Anti-bacterial activity (MIC), strain EFA 15-4 ([1]; clinical isolate EFA 15-4): > 32 µg/mL
Anti-bacterial activity (MIC), strain EFA 15-5 ([1]; clinical isolate EFA 15-5): > 32 µg/mL
Anti-bacterial activity (MIC), strain EFA 15-6 ([1]; clinical isolate EFA 15-6): > 32 µg/mL
Anti-bacterial activity (MIC), strain EFA 15-9 ([1]; clinical isolate EFA 15-9): > 32 µg/mL
Anti-bacterial activity (MIC), strain EFM 15-1 ([2]; clinical isolate EFM 15-1): > 32 µg/mL
Anti-bacterial activity (MIC), strain EFM 15-2 ([2]; clinical isolate EFM 15-2): > 32 µg/mL
Anti-bacterial activity (MIC), strain EFM 15-3 ([2]; clinical isolate EFM 15-3): > 32 µg/mL
Anti-bacterial activity (MIC), strain EFM 15-4 ([2]; clinical isolate EFM 15-4): > 32 µg/mL
Anti-bacterial activity (MIC), strain EFM 15-5 ([2]; clinical isolate EFM 15-5): 8 µg/mL
Anti-bacterial activity (MIC), strain EFM 15-6 ([2]; clinical isolate EFM 15-6): 32 µg/mL
Anti-bacterial activity (MIC), strain ECO+ 15-1 ([3]; clinical isolate ECO+ 15-1): > 32 µg/mL
Anti-bacterial activity (MIC), strain ECO+ 15-2 ([3]; clinical isolate ECO+ 15-2): > 32 µg/mL
Anti-bacterial activity (MIC), strain ECO+ 15-3 ([3]; clinical isolate ECO+ 15-3): > 32 µg/mL
Anti-bacterial activity (MIC), strain ECO+ 15-4 ([3]; clinical isolate ECO+ 15-4): > 32 µg/mL
Anti-bacterial activity (MIC), strain ECO− 15-1 ([3]; clinical isolate ECO− 15-1): > 32 µg/mL
Anti-bacterial activity (MIC), strain ECO− 15-2 ([3]; clinical isolate ECO− 15-2): > 32 µg/mL
Anti-bacterial activity (MIC), strain ECO− 15-3 ([3]; clinical isolate ECO− 15-3): > 32 µg/mL
Anti-bacterial activity (MIC), strain ECO− 15-4 ([3]; clinical isolate ECO− 15-4): > 32 µg/mL
Anti-bacterial activity (MIC), strain BCA 14-1 ([4]; clinical isolate BCA 14-1): > 32 µg/mL
Anti-bacterial activity (MIC), strain BCA 14-4 ([4]; clinical isolate BCA 14-4): > 32 µg/mL
Anti-bacterial activity (MIC), strain BCA 14-5 ([4]; clinical isolate BCA 14-5): > 32 µg/mL
Anti-bacterial activity (MIC), strain BCA 14-6 ([4]; clinical isolate BCA 14-6): > 32 µg/mL
Anti-bacterial activity (MIC), strain BCA 14-7 ([4]; clinical isolate BCA 14-7): > 32 µg/mL
Anti-bacterial activity (MIC), strain BCA 14-8 ([4]; clinical isolate BCA 14-8): > 32 µg/mL
Anti-bacterial activity (MIC), strain BCA 14-10 ([4]; clinical isolate BCA 14-10): > 32 µg/mL
Anti-bacterial activity (MIC), strain SPN 16-2 ([5]; clinical isolate SPN 16-2): 1 µg/mL
Anti-bacterial activity (MIC), strain SPN 16-4 ([5]; clinical isolate SPN 16-4): 1 µg/mL
Anti-bacterial activity (MIC), strain MRSA 15-1 ([6]; clinical isolate MRSA 15-1): > 32 µg/mL
Anti-bacterial activity (MIC), strain MRSA 15-2 ([6]; clinical isolate MRSA 15-2): > 32 µg/mL
Anti-bacterial activity (MIC), strain MRSA 15-3 ([6]; clinical isolate MRSA 15-3): > 32 µg/mL
Anti-bacterial activity (MIC), strain MRSA 15-4 ([6]; clinical isolate MRSA 15-4): > 32 µg/mL
Anti-bacterial activity (MIC), strain MRSE 15-1 ([7]; clinical isolate MRSE 15-1): > 32 µg/mL
Anti-bacterial activity (MIC), strain MRSE 15-2 ([7]; clinical isolate MRSE 15-2): > 32 µg/mL
Anti-bacterial activity (MIC), strain MRSE 15-3 ([7]; clinical isolate MRSE 15-3): > 32 µg/mL
Anti-bacterial activity (MIC), strain MRSE 15-7 ([7]; clinical isolate MRSE 15-7): > 32 µg/mL
Anti-bacterial activity (MIC), strain MSSA 15-3 ([8]; clinical isolate MSSA 15-3): > 32 µg/mL
Anti-bacterial activity (MIC), strain MSSA 15-4 ([8]; clinical isolate MSSA 15-4): > 32 µg/mL
Anti-bacterial activity (MIC), strain MSSA 15-5 ([8]; clinical isolate MSSA 15-5): > 32 µg/mL
Anti-bacterial activity (MIC), strain MSSA 15-6 ([8]; clinical isolate MSSA 15-6): > 32 µg/mL
Anti-bacterial activity (MIC), strain MSSE 15-3 ([9]; clinical isolate MSSE 15-3): > 32 µg/mL
Anti-bacterial activity (MIC), strain MSSE 15-4 ([9]; clinical isolate MSSE 15-4): > 32 µg/mL
Anti-bacterial activity (MIC), strain MSSE 15-5 ([9]; clinical isolate MSSE 15-5): > 32 µg/mL
Anti-bacterial activity (MIC), strain MSSE 15-6 ([9]; clinical isolate MSSE 15-6): > 32 µg/mL
inhibition at 30 µM [10]: -2%
